Legend:
SETVI [1] = assay: Post-emergence herbicidal action against SETVI; format: in vivo, Setaria viridis; settings: 80 g/ha, visual assessment about 3 weeks after treatment vs untreated controls
How it was run: (§1)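 Weeds were grown in sandy loam in a greenhouse and treated at the one-leaf stage, 2 to 3 weeks after sowing. WP or EC formulations were sprayed onto green parts at 600 to 800 l/ha water with 0.2% wetting agent. Visual % action versus untreated controls was scored after about 3 weeks.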

LOLRI [2] = assay: Pre-emergence herbicidal action against LOLRI (Table 8, titled post-emergence at 320 g/ha); format: in vivo, Lolium rigidum; settings: table stands in the pre-emergence section
How it was run: (§2)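 Sandy loam, wood-fiber pots, seeds covered with soil. Spray onto soil surface: aqueous WP/EC, 600 to 800 L/ha, 0.2% wetting agent. Greenhouse 3 weeks; visual % score vs untreated controls.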

LOLRI [3] = assay: Post-emergence herbicidal action against LOLRI; format: in vivo, Lolium rigidum; settings: 80 g/ha, visual assessment about 3 weeks after treatment vs untreated controls
How it was run: as §1

AVEFA [4] = assay: Post-emergence herbicidal action against AVEFA; format: in vivo, Avena fatua; settings: 80 g/ha, visual assessment after about 3 weeks
How it was run: as §1

ABUTH = assay: Pre-emergence herbicidal action against ABUTH; format: in vivo, Abutylon threophrasti; settings: 320 g/ha
Source text: (§3) Seeds of monocotyledonous and dicotyledonous weed plants and crop plants are laid out in sandy loam soil in wood-fiber pots and covered with soil. The compounds of the invention, formulated in the form of wettable powders (WP) or as emulsion concentrates (EC), are then applied to the surface of the covering soil as aqueous suspension or emulsion at a water application rate equating to 600 to 800 L/ha with addition of 0.2% wetting agent.
(§4) After the treatment, the pots are placed in a greenhouse and kept under good growth conditions for the trial plants. The damage to the test plants is scored visually after a test period of 3 weeks by comparison with untreated controls (herbicidal activity in percent (%): 100% activity=the plants have died, 0% activity=like control plants).

ECHCG [5] = assay: Pre-emergence herbicidal action against ECHCG; format: in vivo, Echinochloa crus-galli; settings: 320 g/ha, scored visually after 3 weeks vs untreated controls
How it was run: as §2

ECHCG [6] = assay: Post-emergence herbicidal action against ECHCG; format: in vivo, Echinochloa crus-galli; settings: 80 g/ha, visual assessment about 3 weeks after treatment vs untreated controls
How it was run: as §1

VERPE = assay: Pre-emergence herbicidal action against VERPE; format: in vivo, Veronica persica; settings: 320 g/ha
How it was run: as §2

POLCO = assay: Pre-emergence herbicidal action against POLCO; format: in vivo, Polygonum convolvulus; settings: 320 g/ha
Source text: as §3, §4

ALOMY [7] = assay: Pre-emergence herbicidal action against ALOMY; format: in vivo, Alopecurus myosuroides; settings: 320 g/ha, scored visually after 3 weeks vs untreated controls
How it was run: as §2

VIOTR = assay: Pre-emergence herbicidal action against VIOTR; format: in vivo, Viola tricolor; settings: 320 g/ha
How it was run: as §2

SETVI [8] = assay: Pre-emergence herbicidal action against SETVI; format: in vivo, Setaria viridis; settings: 320 g/ha, scored visually after 3 weeks vs untreated controls
How it was run: as §2

AVEFA [9] = assay: Pre-emergence herbicidal action against AVEFA; format: in vivo, Avena fatua; settings: 320 g/ha, scored visually after 3 weeks vs untreated controls
How it was run: as §2

DIGSA [10] = assay: Post-emergence herbicidal action against DIGSA; format: in vivo, Digitaria sanguinalis; settings: 80 g/ha, visual assessment about 3 weeks after treatment vs untreated controls
How it was run: as §1

DIGSA [11] = assay: Pre-emergence herbicidal action against DIGSA; format: in vivo, Digitaria sanguinalis; settings: 320 g/ha, scored visually after 3 weeks vs untreated controls
How it was run: as §2

ALOMY [12] = assay: Post-emergence herbicidal action against ALOMY; format: in vivo, Alopecurus myosuroides; settings: 80 g/ha, visual assessment after about 3 weeks
How it was run: as §1

AMARE = assay: Pre-emergence herbicidal action against AMARE; format: in vivo, Amaranthus retroflexus; settings: 320 g/ha
How it was run: as §2

MATIN = assay: Pre-emergence herbicidal action against MATIN; format: in vivo; settings: 320 g/ha
How it was run: as §2

CC#Cc1cc(C)c(C2=C(OC(=O)OCC)C3(CCC(COCCOC)C3)NC2=O)c(Cl)c1 (centres unmarked) [Example P-75]
Post-emergence action against SETVI in % (SETVI [1]): 100%
Pre-emergence herbicidal action against LOLRI in % (LOLRI [2]): 100%
Post-emergence action against LOLRI in % (LOLRI [3]): 100%
Post-emergence action against AVEFA in % (AVEFA [4]): 90%
Pre-emergence action against ABUTH in % (ABUTH): 80%
Pre-emergence action against ECHCG in % (ECHCG [5]): 100%
Post-emergence action against ECHCG in % (ECHCG [6]): 100%
Pre-emergence action against VERPE in % (VERPE): 90%
Pre-emergence action against POLCO in % (POLCO): 80%
Pre-emergence action against ALOMY in % (ALOMY [7]): 100%
Pre-emergence action against VIOTR in % (VIOTR): 100%
Pre-emergence action against SETVI in % (SETVI [8]): 100%
Pre-emergence action against AVEFA in % (AVEFA [9]): 100%
Post-emergence action against DIGSA in % (DIGSA [10]): 90%
Pre-emergence action against DIGSA in % (DIGSA [11]): 100%
Post-emergence action against ALOMY in % (ALOMY [12]): 100%
Pre-emergence action against AMARE in % (AMARE): 100%
Pre-emergence action against MATIN in % (MATIN): 90%

CC#Cc1cc(C)c(C2=C(O)C3(CCC(COCCOC)C3)NC2=O)c(Cl)c1 (centres unmarked) [Example I-50]
Post-emergence action against SETVI in % (SETVI [1]): 100%
Pre-emergence herbicidal action against LOLRI in % (LOLRI [2]): 100%
Post-emergence action against LOLRI in % (LOLRI [3]): 90%
Post-emergence action against AVEFA in % (AVEFA [4]): 80%
Pre-emergence action against ABUTH in % (ABUTH): 100%
Pre-emergence action against ECHCG in % (ECHCG [5]): 100%
Post-emergence action against ECHCG in % (ECHCG [6]): 100%
Pre-emergence action against POLCO in % (POLCO): 90%
Pre-emergence action against ALOMY in % (ALOMY [7]): 100%
Pre-emergence action against VIOTR in % (VIOTR): 100%
Pre-emergence action against SETVI in % (SETVI [8]): 100%
Pre-emergence action against AVEFA in % (AVEFA [9]): 100%
Pre-emergence action against DIGSA in % (DIGSA [11]): 100%
Post-emergence action against ALOMY in % (ALOMY [12]): 100%
Pre-emergence action against AMARE in % (AMARE): 80%
Pre-emergence action against MATIN in % (MATIN): 80%

CC#Cc1cc(Cl)c(C2=C(OC(=O)OCC)C3(CCC(COC)C3)NC2=O)c(OC)c1 (centres unmarked) [Example P-97]
Post-emergence action against SETVI in % (SETVI [1]): 100%
Pre-emergence herbicidal action against LOLRI in % (LOLRI [2]): 100%
Post-emergence action against LOLRI in % (LOLRI [3]): 100%
Post-emergence action against AVEFA in % (AVEFA [4]): 100%
Pre-emergence action against ABUTH in % (ABUTH): 100%
Pre-emergence action against ECHCG in % (ECHCG [5]): 100%
Post-emergence action against ECHCG in % (ECHCG [6]): 100%
Pre-emergence action against VERPE in % (VERPE): 100%
Pre-emergence action against ALOMY in % (ALOMY [7]): 100%
Pre-emergence action against VIOTR in % (VIOTR): 90%
Pre-emergence action against SETVI in % (SETVI [8]): 100%
Pre-emergence action against AVEFA in % (AVEFA [9]): 100%
Post-emergence action against DIGSA in % (DIGSA [10]): 100%
Pre-emergence action against DIGSA in % (DIGSA [11]): 100%
Post-emergence action against ALOMY in % (ALOMY [12]): 100%
Pre-emergence action against AMARE in % (AMARE): 100%
Pre-emergence action against MATIN in % (MATIN): 100%

C#CCOCC1CCC2(C1)NC(=O)C(c1c(C)cc(C#CC)cc1Cl)=C2OC(=O)OCC (centres unmarked) [Example P-100]
Post-emergence action against SETVI in % (SETVI [1]): 100%
Pre-emergence herbicidal action against LOLRI in % (LOLRI [2]): 100%
Post-emergence action against LOLRI in % (LOLRI [3]): 100%
Post-emergence action against AVEFA in % (AVEFA [4]): 80%
Pre-emergence action against ABUTH in % (ABUTH): 80%
Pre-emergence action against ECHCG in % (ECHCG [5]): 100%
Post-emergence action against ECHCG in % (ECHCG [6]): 100%
Pre-emergence action against VERPE in % (VERPE): 90%
Pre-emergence action against ALOMY in % (ALOMY [7]): 100%
Pre-emergence action against VIOTR in % (VIOTR): 100%
Pre-emergence action against SETVI in % (SETVI [8]): 100%
Pre-emergence action against AVEFA in % (AVEFA [9]): 90%
Post-emergence action against DIGSA in % (DIGSA [10]): 90%
Pre-emergence action against DIGSA in % (DIGSA [11]): 100%
Post-emergence action against ALOMY in % (ALOMY [12]): 100%
Pre-emergence action against AMARE in % (AMARE): 100%
Pre-emergence action against MATIN in % (MATIN): 90%
